In patent publication US6083967A, “S-oxide and S,S-dioxide tetrahydrothiopyran phenyloxazolidinones” (Pharmacia & Upjohn Company, priority 1998, dated 2000):
≈ marks a conversion by molar mass, not a printed value.

Tests used:
S. aureus UC 9213 = assay: MIC by agar dilution against S. aureus UC 9213; assay type: cell-based; conditions: Staphylococcus aureus, UC9213, in vitro
Source text: (§1) The oxazolidinone antibacterial agents of this invention have useful activity against a variety of organisms. The in vitro activity of compounds of this invention can be assessed by standard testing procedures such as the determination of minimum inhibitory concentration (MIC) by agar dilution as described in "Approved Standard. Methods for Dilution Antimicrobial Susceptibility Tests for Bacteria That Grow Aerobically", 3rd. ed., published 1993 by the National Committee for Clinical Laboratory Standards, Villanova, Pa., USA.

H. influenzae 30063 = assay: MIC by agar dilution against H. influenzae 30063; assay type: cell-based; conditions: Haemophilus influenzae, in vitro
Source text: as §1

human MAO A = biological target: T1, human MAO A (Homo sapiens, UniProt P21397); assay: Continuous spectrophotometric assay of inhibitory activity to human MAO-A; assay type: biochemical; conditions: pH 7.3, 37° C., 80 μM substrate, 1% DMSO, 15 minutes pre-incubation; read-out: Ki, inhibition of human MAO A
T1 construct: Human placental MAO A is solubilized and purified as described; from tissue; host or cells: human placenta (enzyme supplied by Dr. Neal Castagnoli Jr's lab, Virginia Technical University)
T1 sequence (P21397 1-527): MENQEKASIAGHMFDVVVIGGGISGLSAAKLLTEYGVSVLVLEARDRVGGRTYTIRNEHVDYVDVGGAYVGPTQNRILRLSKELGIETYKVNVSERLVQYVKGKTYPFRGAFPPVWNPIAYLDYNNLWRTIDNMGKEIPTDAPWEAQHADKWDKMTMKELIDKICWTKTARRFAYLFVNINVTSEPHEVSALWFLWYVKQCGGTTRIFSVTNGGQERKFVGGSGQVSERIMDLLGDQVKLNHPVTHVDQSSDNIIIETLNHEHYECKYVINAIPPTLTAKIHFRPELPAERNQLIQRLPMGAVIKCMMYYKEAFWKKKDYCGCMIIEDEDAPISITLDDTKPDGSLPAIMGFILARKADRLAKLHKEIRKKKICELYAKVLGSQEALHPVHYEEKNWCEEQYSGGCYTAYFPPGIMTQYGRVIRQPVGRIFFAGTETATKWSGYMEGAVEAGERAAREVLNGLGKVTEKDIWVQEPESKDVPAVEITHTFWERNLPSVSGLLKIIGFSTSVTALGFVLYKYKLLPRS
Source text: The continuous spectrophotometric assay for measuring MAO activity is based on a colored oxidation product of the chromogenic substrate, 1-methyl-4-(1-methyl-2-pyrryl)-1,2,3,6-tetrahydropyridine, by MAO enzymes. The product is stable for many days at room temperature. The conversion of the substrate to the oxidation product is followed continuously from the moment of mixing of the MAO enzyme with the substrate and the initial reaction rate curve is directly observed. The bright yellow-green oxidation product has a peak absorption at 421 nm with a broad band that can be measured between 390 nm to 440 nm. Thus, the assay can be performed on the least sophisticated spectrophotometric equipment.
Human placental MAO A is solubilized and purified as described in N. Castagnoli Jr. et al., J. Med Chem. Vol. 39, pp. 4756-4761 (1996) and J. I. Salach et al., J. of Bio. Chem., Vol. 260, p. 13199 (1985). The human placental MAO A is obtained as a concentrated solution (5 nmols per ml). Bovine liver MAO B is purified as described N. Castagnoli Jr. et al., J. Med Chem., Vol. 39, pp. 4756-4761 (1996) and J. I. Salach et al., Methods Enzymol., Vol. 142, pp […] (1987). The bovine liver MAO B is obtained as a concentrated solution (8 nmols per ml). Working stocks of the enzyme solutions are made by 1/50 dilution of initial stocks into 50 mM sodium phosphate and optionally 10% glycerol. The solutions are kept on ice until final dilution into the assay. Alternatively, the frozen MAO enzymes may be diluted 800-3200 fold into the 50 mM sodium phosphate buffer immediately before use. This method is useful when screening a large number of oxazolidinones.
Oxazolidinones are prepared in DMSO at a concentration of 50 mM. Serial dilutions of the 50 mM stock solution are made in DMSO to form additional stock solutions ranging from […] to 0.3125 mM. The stock solutions are then frozen until use. The stocks are diluted 1/100 into the final enzyme assay volume at the time of assay.
Typically, the enzyme, along with an oxazolidinone inhibitor, are preincubated for approximately 15 minutes in the sodium phosphate buffer prior to assay. The reactions are started by addition of the substrate. Initial velocities are generally collected over an interval of one to sixty minutes.
The assay functions well in the spectrophotometer cuvette for evaluating single oxazolidinone's MAO inhibitory activity. The assay has also been successfully adapted to operate in high throughput microtiterplate format (i.e., 96, 384 and 1536 well plate readers). Hundreds of assays can be run simultaneously. Assay volumes are 250 μL and the wells have an effective path length of 0.75 cm. Generally, the final composition of the assay in the microtiterplate comprises […] sodium phosphate (pH=7.3), oxazolidinone having concentration ranging up to 500 μM, 1% DMSO, 80 μM substrate (MAO A) or 200 μM substrate (MAO B), and sufficient enzyme to produce an absorbance change from 0.0005 to 0.050 per minute at 421 nm. The reaction is run at 37° C., and rapid temperature equilibration of the assay solution is achieved by preincubating the plate and stock solutions at about 37° C. The reaction is followed by recording the increase in absorbance at 421 nm. The oxidation product has an extinction coefficient of 25,000 M^-1 cm^-1 at 420. See: N. Castagnoli Jr. et al., J. Med Chem., Vol. 39, pp. 4756-4761 (1996). Initial rates are determined by linear regression of the progress curves over an absorbance change of 0.06-0.12 at 421 nm. This range represents a substrate consumption of approximately 5% in the assay. The percentage inhibition of an oxazolidinone is determined from the following equation
In the above equation, the term "negative control" refers to a complete assay with 1% of DMSO but no MAO enzyme. The term "positive control" refers to a complete assay with 1% of DMSO but no inhibitor. The term "rate (I)" refers to the reaction rate under a complete assay conditions. […]

Row | Structure (SMILES) | MIC (S. aureus UC 9213) [µg/mL] | MIC (H. influenzae 30063) [µg/mL] | Ki (human MAO A) [µM]
1 | O=C(NC[C@H]1CN(c2ccc([C@H]3CC[S@+]([O-])CC3)c(F)c2)C(=O)O1)C1CC1 [Example 8, (-)-N-[[(5S)-3-[3-fluoro-4-(trans-tetrahydro-1-oxido-2H-thiopyran-4-yl)phenyl]-2-oxo-5-oxazolidinyl]methyl]cyclopropanecarboxamide] | 8 (≈ 20.3 µM) | 16 (≈ 40.6 µM) | > 3000
2 | CCC(=O)NC[C@H]1CN(c2ccc(C3CCS(=O)(=O)CC3)c(F)c2)C(=O)O1 [Example 5, (-)-N-[[(5S)-3-[3-fluoro-4-(tetrahydro-1,1-dioxido-2H-thiopyran-4-yl)phenyl]-2-oxo-5-oxazolidinyl]methyl]propanamide] | 4 (≈ 10 µM) | 8 (≈ 20.1 µM) | 3000
3 | CC(=O)NC[C@H]1CN(c2ccc([C@H]3CC[S@@+]([O-])CC3)c(F)c2)C(=O)O1 [Example 1, (-)-N-[[(5S)-3-[3-fluoro-4-(cis-tetrahydro-1-oxido-2H-thiopyran-4-yl)phenyl]-2-oxo-5-oxazolidinyl]methyl]acetamide] | 4 (≈ 10.9 µM) | 8 (≈ 21.7 µM) | 648
4 | CCC(=O)NC[C@H]1CN(c2ccc([C@H]3CC[S@+]([O-])CC3)c(F)c2)C(=O)O1 [Example 7, (-)-N-[[(5S)-3-[3-fluoro-4-(trans-tetrahydro-1-oxido-2H-thiopyran-4-yl)phenyl]-2-oxo-5-oxazolidinyl]methyl]propanamide] | 4 (≈ 10.5 µM) | 4 (≈ 10.5 µM) | 905
5 | O=C(NC[C@H]1CN(c2ccc([C@H]3CC[S@+]([O-])CC3)c(F)c2)C(=O)O1)C(Cl)Cl [Example 9, (-)-2,2-dichloro-N-[[(5S)-3-[3-fluoro-4-(trans-tetrahydro-1-oxido-2H-thiopyran-4-yl)phenyl]-2-oxo-5-oxazolidinyl]methyl]acetamide] | 1 (≈ 2.29 µM) | 2 (≈ 4.57 µM) | 396
6 | CCC(=O)NC[C@H]1CN(c2ccc([C@H]3CC[S@@+]([O-])CC3)c(F)c2)C(=O)O1 [Example 2, (-)-N-[[(5S)-3-[3-fluoro-4-(cis-tetrahydro-1-oxido-2H-thiopyran-4-yl)phenyl]-2-oxo-5-oxazolidinyl]methyl]propanamide] | 8 (≈ 20.9 µM) | 16 (≈ 41.8 µM) | > 3000
7 | O=C(NC[C@H]1CN(c2ccc([C@H]3CC[S@@+]([O-])CC3)c(F)c2)C(=O)O1)C1CC1 [Example 3, (-)-N-[[(5S)-3-[3-fluoro-4-(cis-tetrahydro-1-oxido-2H-thiopyran-4-yl)phenyl]-2-oxo-5-oxazolidinyl]methyl]cyclopropanecarboxamide] | 8 (≈ 20.3 µM) | 16 (≈ 40.6 µM) | 734
8 | O=C(NC[C@H]1CN(c2ccc([C@H]3CC[S@@+]([O-])CC3)c(F)c2)C(=O)O1)C(Cl)Cl [Example 4, (-)-2,2-Dichloro-N-[[(5S)-3-[3-fluoro-4-(cis-tetrahydro-1-oxido-2H-thiopyran-4-yl)phenyl]-2-oxo-5-oxazolidinyl]methyl]acetamide] | 2 (≈ 4.57 µM) | 8 (≈ 18.3 µM) | 2570
9 | O=C(NC[C@H]1CN(c2ccc(C3CCS(=O)(=O)CC3)c(F)c2)C(=O)O1)C(Cl)Cl [Example 6, (-)-2,2-dichloro-N-[[(5S)-3-[3-fluoro-4-(tetrahydro-1,1-dioxido-2H-thiopyran-4-yl)phenyl]-2-oxo-5-oxazolidinyl]methyl]acetamide] | 2 (≈ 4.41 µM) | 2 (≈ 4.41 µM) | > 3000
